# Assays:
# Format in all cases: in vivo
# [1] = test system: redroot pigweed (Amaranthus retroflexus, AMARE); experiment: Pre-emerge test, greenhouse herbicide activity screening; settings: rated 14 days after application, 0 = no damage, 100 = complete death
# Method in brief: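 Plants grown in 10 cm pots of sandy loam mix received acetone-dissolved compounds through a moving flat-fan nozzle. Doses ranged from 15 to 1000 g ai/ha. Pre-emerge pots were seeded one day earlier, post-emerge pots 8–21 days earlier. Fourteen days on, each pot was graded 0–100 for damage.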
# [2] = test system: barnyardgrass (Echinochloa crus-galli, ECHCG); experiment: as above; settings: rated 14 days after application, 0 = no damage, 100 = complete death
# Method in brief: (§1)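 Compounds in acetone were track-sprayed at 15-1000 g ai/ha (187 l/ha) on sandy loam pots: pre-emerge one day after seeding, post-emerge at 2-3 leaf stage with 0.25% v/v non-ionic surfactant. Phytotoxicity was rated 14 days later on a 0 (no damage) to 100 (complete death) scale.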
# [3] = test system: common ragweed (Ambrosia artemisizfolia L., AMBEL); experiment: as above; settings: rated 14 days after application, 0 = no damage, 100 = complete death
# Method in brief: as §1
# [4] = test system: green foxtail (Setaria viridis, SETVI); experiment: as above; settings: rated 14 days after application, 0 = no damage, 100 = complete death
# Method in brief: as §1
# [5] = test system: ivyleaf morningglory (Ipomoea hederacea, IPOHE); experiment: as above; settings: rated 14 days after application, 0 = no damage, 100 = complete death
# Method in brief: as §1
# [6] = test system: johnsongrass (Sorghum halepense, SORHA); experiment: as above; settings: rated 14 days after application, 0 = no damage, 100 = complete death
# Method in brief: as §1
# [7] = test system: lambsquarters (Chenopodium album, CHEAL); experiment: as above; settings: rated 14 days after application, 0 = no damage, 100 = complete death
# Method in brief: as §1
# [8] = test system: large crabgrass (Digitaria sanguinalis, DIGSA); experiment: as above; settings: rated 14 days after application, 0 = no damage, 100 = complete death
# Method in brief: as §1
# [9] = test system: sicklepod (Cassia obtusifolia, CASOB); experiment: as above; settings: rated 14 days after application, 0 = no damage, 100 = complete death
# Method in brief: as §1
# [10] = test system: velvetleaf (Abutilon theophrasti, ABUTH); experiment: as above; settings: rated 14 days after application, 0 = no damage, 100 = complete death
# Method in brief: as §1
# [11] = test system: field corn (Zea mays L., var. Dekalb 535, CORN); experiment: Pre-emerge test, crop safety; settings: rated 14 days after application, 0 = no damage, 100 = complete death
# Method in brief: (§2)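 Sandy loam pots; pre-emerge: sown 1 d pre-spray, surface-watered after, then bottom-watered. Post-emerge: sown 8–21 d before, 2–3 leaf stage, + 0.25% v/v NIS, bottom-watered. Acetone, 187 l/ha track spray, 15–1000 g ai/ha. 0–100 injury score, day 14.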
# [12] = test system: upland rice (Oryza sp., var. Tebonnet, RICE); experiment: Pre-emerge test, crop safety; settings: rated 14 days after application, 0 = no damage, 100 = complete death
# Method in brief: as §2
# [13] = test system: barnyardgrass (Echinochloa crus-galli, ECHCG); experiment: Post-emerge test, greenhouse herbicide activity screening; settings: post-emerge, 14 days after application, rating scale 0-100
# Method in brief: (§3)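 Rating: 0–100 visual injury, 14 DAA. Application: acetone, 187 l/ha, 15–1000 g ai/ha, flat-fan track sprayer with nozzle 40–45 cm above soil or canopy. Post-emerge runs used 0.25% v/v surfactant on 2–3 leaf plants.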
# [14] = test system: common ragweed (Ambrosia artemisizfolia L., AMBEL); experiment: as above; settings: post-emerge, 14 days after application, rating scale 0-100
# Method in brief: as §3
# [15] = test system: ivyleaf morningglory (Ipomoea hederacea, IPOHE); experiment: as above; settings: post-emerge, 14 days after application, rating scale 0-100
# Method in brief: as §3
# [16] = test system: johnsongrass (Sorghum halepense, SORHA); experiment: as above; settings: post-emerge, 14 days after application, rating scale 0-100
# Method in brief: as §3
# [17] = test system: lambsquarters (Chenopodium album, CHEAL); experiment: as above; settings: post-emerge, 14 days after application, rating scale 0-100
# Method in brief: as §3
# [18] = test system: large crabgrass (Digitaria sanguinalis, DIGSA); experiment: as above; settings: post-emerge, 14 days after application, rating scale 0-100
# Method in brief: as §3
# [19] = test system: redroot pigweed (Amaranthus retroflexus, AMARE); experiment: as above; settings: post-emerge, 14 days after application, rating scale 0-100
# Method in brief: as §3
# [20] = test system: sicklepod (Cassia obtusifolia, CASOB); experiment: as above; settings: post-emerge, 14 days after application, rating scale 0-100
# Method in brief: as §3
# [21] = test system: velvetleaf (Abutilon theophrasti, ABUTH); experiment: as above; settings: post-emerge, 14 days after application, rating scale 0-100
# Method in brief: as §3
# [22] = test system: field corn (Zea mays L., var. Dekalb 535, CORN); experiment: Post-emerge test, crop safety; settings: post-emerge, 14 days after application, rating scale 0-100
# Method in brief: as §1
# [23] = test system: upland rice (Oryza sp., var. Tebonnet, RICE); experiment: Post-emerge test, crop safety; settings: post-emerge, 14 days after application, rating scale 0-100
# Method in brief: as §1
smiles,measurement,setting,value
COc1c(Cl)cc(F)c(-n2c(=O)cc(C(F)(F)F)n(C)c2=O)c1NC(=O)c1cccnc1 [2-98],"Pre-emerge Herbicidal Activity, phytotoxicity rating (0-100), AMARE",[1]; 63 g ai/ha,100
same,"Pre-emerge Herbicidal Activity, phytotoxicity rating (0-100), AMARE",[1]; 250 g ai/ha,100
same,"Pre-emerge Herbicidal Activity, phytotoxicity rating (0-100), ECHCG",[2]; 63 g ai/ha,30
same,"Pre-emerge Herbicidal Activity, phytotoxicity rating (0-100), ECHCG",[2]; 250 g ai/ha,100
same,"Pre-emerge Herbicidal Activity, phytotoxicity rating (0-100), AMBEL",[3]; 63 g ai/ha,100
same,"Pre-emerge Herbicidal Activity, phytotoxicity rating (0-100), AMBEL",[3]; 250 g ai/ha,100
same,"Pre-emerge Herbicidal Activity, phytotoxicity rating (0-100), SETVI",[4]; 63 g ai/ha,80
same,"Pre-emerge Herbicidal Activity, phytotoxicity rating (0-100), SETVI",[4]; 250 g ai/ha,100
same,"Pre-emerge Herbicidal Activity, phytotoxicity rating (0-100), IPOHE",[5]; 63 g ai/ha,100
same,"Pre-emerge Herbicidal Activity, phytotoxicity rating (0-100), IPOHE",[5]; 250 g ai/ha,100
same,"Pre-emerge Herbicidal Activity, phytotoxicity rating (0-100), SORHA",[6]; 63 g ai/ha,30
same,"Pre-emerge Herbicidal Activity, phytotoxicity rating (0-100), SORHA",[6]; 250 g ai/ha,95
same,"Pre-emerge Herbicidal Activity, phytotoxicity rating (0-100), CHEAL",[7]; 63 g ai/ha,100
same,"Pre-emerge Herbicidal Activity, phytotoxicity rating (0-100), CHEAL",[7]; 250 g ai/ha,100
same,"Pre-emerge Herbicidal Activity, phytotoxicity rating (0-100), DIGSA",[8]; 63 g ai/ha,40
same,"Pre-emerge Herbicidal Activity, phytotoxicity rating (0-100), DIGSA",[8]; 250 g ai/ha,95
same,"Pre-emerge Herbicidal Activity, phytotoxicity rating (0-100), CASOB",[9]; 63 g ai/ha,100
same,"Pre-emerge Herbicidal Activity, phytotoxicity rating (0-100), CASOB",[9]; 250 g ai/ha,100
same,"Pre-emerge Herbicidal Activity, phytotoxicity rating (0-100), ABUTH",[10]; 63 g ai/ha,100
same,"Pre-emerge Herbicidal Activity, phytotoxicity rating (0-100), ABUTH",[10]; 250 g ai/ha,100
same,"Pre-emerge phytotoxicity rating (0-100), crop damage, CORN",[11]; 63 g ai/ha,70
same,"Pre-emerge phytotoxicity rating (0-100), crop damage, CORN",[11]; 250 g ai/ha,90
same,"Pre-emerge phytotoxicity rating (0-100), crop damage, RICE",[12]; 63 g ai/ha,60
same,"Pre-emerge phytotoxicity rating (0-100), crop damage, RICE",[12]; 250 g ai/ha,90
same,phytotoxicity rating ECHCG,[13]; 63 g ai/ha,0
same,phytotoxicity rating ECHCG,[13]; 250 g ai/ha,20
same,phytotoxicity rating AMBEL,[14]; 63 g ai/ha,80
same,phytotoxicity rating AMBEL,[14]; 250 g ai/ha,100
same,phytotoxicity rating IPOHE,[15]; 63 g ai/ha,100
same,phytotoxicity rating IPOHE,[15]; 250 g ai/ha,100
same,phytotoxicity rating SORHA,[16]; 63 g ai/ha,0
same,phytotoxicity rating SORHA,[16]; 250 g ai/ha,90
same,phytotoxicity rating CHEAL,[17]; 63 g ai/ha,70
same,phytotoxicity rating CHEAL,[17]; 250 g ai/ha,90
same,phytotoxicity rating DIGSA,[18]; 63 g ai/ha,0
same,phytotoxicity rating DIGSA,[18]; 250 g ai/ha,50
same,phytotoxicity rating AMARE,[19]; 63 g ai/ha,75
same,phytotoxicity rating AMARE,[19]; 250 g ai/ha,100
same,phytotoxicity rating CASOB,[20]; 63 g ai/ha,100
same,phytotoxicity rating CASOB,[20]; 250 g ai/ha,100
same,phytotoxicity rating ABUTH,[21]; 63 g ai/ha,100
same,phytotoxicity rating ABUTH,[21]; 250 g ai/ha,100
same,phytotoxicity rating CORN,[22]; 63 g ai/ha,20
same,phytotoxicity rating CORN,[22]; 250 g ai/ha,90
same,phytotoxicity rating RICE,[23]; 63 g ai/ha,40
same,phytotoxicity rating RICE,[23]; 250 g ai/ha,90

# From patent publication US6355799B1, “Substituted benzene compounds, process for their preparation, and herbicidal and defoliant compositions containing them” (ISK Americas Incorporated, priority 1997, dated 2002)
